Reference: patent publication US10624965B2, “Immunotherapy treatments and compositions” (SUSAVION BIOSCIENCES, INC., priority 2014, dated 2020)
Positions of bridges follow the written chain, without caps; N, C: chain ends. Chains are numbered I, II in the order given. No end group written: not given here.

What was measured:
[1] = tested on: serum cytokines and chemokines; details: mouse, in vivo
Description: To determine whether the responses in serum proteins would be different in tumor-bearing mice from those in healthy mice, sera were collected from female mice in which breast cancer 4T1 cells had been implanted. After the tumors had grown over a period of 10 to 12 days to a size of ˜500 mm^3, tetravalent svL4 was injected subcutaneously at doses of 0.1 and 1.0 nmol/g. Blood was withdrawn and sera prepared 4 hours after injection. The sera of untreated animals had low levels of cytokines and chemokines at 4 h. With a few proteins, such as IL-1β, IL-2, IL-6 and TNFα, the values were very low in untreated animals and upon treatment with svL4 were increased but still nearly undetectable on the array blots. […] Several cytokines that increased but were still low in amount included GM-CSF, CCL4, IGFBP-1, IL-21, lymphotoxin-α, and IL-17. Major proteins included CCL1, CCL8, CCL28, Endostatin, Fas, HVEM, IL-11, IL-12p70, IL-16, IL-27, IL-28, MIP-2, MMP-9, NOV, Soggy-1, SPARC, TIMP-2, TLR2 and VEGF-B. In some cases, the higher dose caused a higher amount of the protein, whereas with several proteins the amount was lower with the higher dose. […] A number of soluble proteins were identified as cell-surface receptors, such as Fas, HVEM and TLR2, which indicated significant shedding by activated cells. […]

[2] = in vivo
Source text: (§1) It is important to note that during and after drug administration there was no change in mouse weight or behavior, indicating no overt toxicity related to treatment.

[3] = design: species or system mice
Source text: as §1

In the case of “I: VQATQSNQHTPRGGGSKK-NH2 / II: VQATQSNQHTPRGGGSK / III: VQATQSNQHTPRGGGS / IV: VQATQSNQHTPRGGGS (amide I:17-IV:C, I:18-II:C, II:17-III:C) [svL4, [(VQATQSNQHTPRGGGS)2K]2K—NH2]”, the “pattern typical of a toxic "cytokine storm"” value [1] is reported as “did not occur”, the “change in mouse weight or behavior (overt toxicity)” value [2] is reported as “no change” and the “irritation or formation of fibrous or granulomatous tissue at injection region” value ([2]; mouse) is reported as “no apparent irritation”. The “binding of peptides to sera (antigenicity)” value [3] was “negative”.
